Target: T1, cGMP specific PDE (Phosphodiesterase type V) (Bos taurus, UniProt Q28156)
T1 construct: The PDE V in enzyme is isolated from bovine aorta; from tissue; host or cells: bovine aorta
Assay: cGMP specific PDE (PDE V) inhibition, "one step" assay
Type: biochemical
Conditions: PDE V isolated from bovine aorta; concentration of inhibitor required for 50% inhibition of enzyme activity; read-out: IC₅₀
Procedure: The affinities of compounds of formula (I) for cGMP specific PDE (Phosphodiesterase type V) may be assessed by determination of their IC₅₀ values (the concentration of inhibitor required for 50% inhibition of enzyme activity). The PDE V in enzyme is isolated from bovine aorta, essentially by the method of Lugnier et al. in Biochem. Pharmacology 35, 1743 (1986) and assays are performed using a "one step" assay adapted from the method of Wells et al in Biochim. Biophys. Acta 384, 430 (1975).
Compounds of the invention were assayed according to the procedure described hereinabove.

Row | Structure (SMILES) | IC50
1 | CCCOc1ccc(NC(=O)OCC)cc1-c1nc2c(c(C)nn2C)c(=O)[nH]1 [Example 22, 1,3-Dimethyl-6-(2-propoxy-5-ethoxycarbonylaminophenyl)-1,5-dihydropyrazolo[3,4-d]pyrimidin-4-one] | 1 to 10 nM
2 | CCCOc1ccc(-c2ccc(C)s2)cc1-c1nc2c(c(C)nn2C)c(=O)[nH]1 [Example 69, 1,3-Dimethyl-6-[2-propoxy-5-(5-methyl-2-thienyl)phenyl]-1,5-dihydropyrazolo[3,4-d]pyrimidin-4-one] | 1 to 10 nM
3 | CCCOc1ccc(-c2nc(C)cs2)cc1-c1nc2c(c(C)nn2CC)c(=O)[nH]1 [Example 37, 1-Ethyl-3-methyl-6-[2-propoxy-5-(4-methyl-2-thiazolyl)phenyl]-1,5-dihydro-pyrazolo[3,4-d] pyrimidin-4-one] | 1 to 10 nM
4 | CCCOc1ccc(-c2csc(C)n2)cc1-c1nc2c(c(C)nn2C)c(=O)[nH]1 [Example 51, 1,3-Dimethyl-6-[2-propoxy-5-(2-methyl-4-thiazolyl)phenyl]-1,5-dihydro-pyrazolo[3,4-d]pyrimidin-4-one] | 1 to 10 nM
5 | CCCOc1ccc(NC(=O)NCC)cc1-c1nc2c(c(C)nn2C)c(=O)[nH]1 [Example 30, 1,3-Dimethyl-6-(2-propoxy-5-ethylureidophenyl)-1,5-dihydro-pyrazolo[3,4-d]pyrimidin-4-one] | 1 to 10 nM
6 | CCCOc1ccc(N)cc1-c1nc2c(c(C)nn2C)c(=O)[nH]1 [Example 7, 1,3-Dimethyl-6-(2-propoxy-5-aminophenyl)-1,5-dihydropyrazolo[3,4-d]pyrimidin-4-one] | 1 to 10 nM
7 | CCCOc1ccc(-c2n[nH]c(-c3ccccc3)n2)cc1-c1nc2c(c(C)nn2C)c(=O)[nH]1 [Example 67, 1,3-Dimethyl-6-[2-propoxy-5-(3-phenyl-1,2,4-triazol-5-yl)phenyl]-1,5-dihydropyrazolo[3,4-d] pyrimidin-4-one] | 1 to 10 nM
8 | CCCOc1ccc(-c2csc(-c3cccnc3)n2)cc1-c1nc2c(c(C)nn2CC)c(=O)[nH]1 [Example 65, 1-Ethyl-3-methyl-6-[2-propoxy-5-(2-(3-pyridyl)-4-thiazolyl)phenyl]-1,5-dihydropyrazolo[3,4-d]pyrimidin-4-one] | 1 to 10 nM
9 | CCCOc1ccc(NC(=O)c2ccc(F)cc2)cc1-c1nc2c(c(C)nn2C)c(=O)[nH]1 [Example 18, 1,3-Dimethyl-6-[2-propoxy-5-(4-fluorobenzamido)phenyl]-1,5-dihydropyrazolo[3,4-d]pyrimidin-4-one] | 1 to 10 nM
10 | CCCOc1ccc(NC(=O)c2cccs2)cc1-c1nc2c(c(C)nn2C)c(=O)[nH]1 [Example 19, 1,3-Dimethyl-6-[2-propoxy-5-((2-thienyl)carboxamido)phenyl]-1,5-dihydropyrazolo[3,4-d]pyrimidin-4-one] | 1 to 10 nM
11 | CCCOc1ccc(NC(=S)NCC)cc1-c1nc2c(c(C)nn2C)c(=O)[nH]1 [Example 31, 1,3-Dimethyl-6-(2-propoxy-5-ethylthioureidophenyl)-1,5-dihydro-pyrazolo[3,4-d]pyrimidin-4-one] | 1 to 10 nM
12 | CCCOc1ccc(-c2csc(C)n2)cc1-c1nc2c(c(C)nn2CC)c(=O)[nH]1 [Example 63, 1-Ethyl-3-methyl-6-[2-propoxy-5-(2-methyl-4-thiazolyl)phenyl]-1,5-dihydropyrazolo[3,4-d]pyrimidin-4-one] | 1 to 10 nM
13 | CCCOc1ccc(NC(C)=O)cc1-c1nc2c(c(C)nn2C)c(=O)[nH]1 [Example 15, 1,3-Dimethyl-6-(2-propoxy-5-acetamidophenyl)-1,5-dihydropyrazolo[3,4-d]pyrimidin-4-one] | 1 to 10 nM
14 | CCCOc1ccc(NC(=O)C(F)(F)F)cc1-c1nc2c(c(C)nn2C)c(=O)[nH]1 [Example 41, 1,3-Dimethyl-6-(2-propoxy-5-trifluoroacetamidophenyl)-1,5-dihydro-pyrazolo[3,4-d]pyrimidin-4-one] | 1 to 10 nM
15 | CCCOc1ccc(NS(C)(=O)=O)cc1-c1nc2c(c(C)nn2C)c(=O)[nH]1 [Example 11, 1,3-Dimethyl-6-(2-propoxy-5-methanesulfonamidophenyl)-1,5-dihydropyrazolo[3,4-d]pyrimidin-4-one] | 1 to 10 nM

Reference: patent EP0636626A1, “Pyrazolopyrimidine Derivatives” (LABORATOIRES GLAXO SA, priority 1993, dated 1995)
